Measurements from patent US20250353819A1, “ARYL HYDANTOIN COMPOUNDS AND METHODS OF USE” (priority 2022, published 2025).

Columns and labels:
[1] = Kinetic solubility (nephelometry); assay type: physicochemical; conditions: aqueous buffer, kinetic from dmso stock; kinetic solubility, pH 6.5 phosphate buffer; read-out: Sol6.5
Procedure: Kinetic Solubility. Compounds in DMSO (10 mg/mL) were diluted into either pH 6.5 phosphate buffer or 0.01 M HCl (approx. pH 2.0) with the final DMSO concentration being 1%. Samples were then analysed via nephelometry to determine a solubility range (Bevan and Lloyd, 2000).

Binding to HLM = conditions: human liver microsomes

With `CC1(C)NC(=O)N(c2ccc(F)c(C(C)(F)F)c2)C1=O` [Compound IC, 3-(3-(1,1-difluoroethyl)-4-fluorophenyl)-5,5-dimethylimidazolidine-2,4-dione] the solubility kinetic [1] was > 100 µg/mL.

Work on `[2H]C([2H])([2H])C1(C([2H])([2H])[2H])NC(=O)N(c2ccc(F)c(C(C)(F)F)c2)C1=O` [Compound IE, 3-(3-(1,1-difluoroethyl)-4-fluorophenyl)-5,5-bis(methyl-d3)imidazolidine-2,4-dione] yielded a fraction unbound (Binding to HLM) of 1.
